These results are taken from PMC11956004 (2025).

Starred links: 1 amine or outer side, 2 acyl side, 3 side chain; linkers in the order of their positions; H or OH if unused. Positions of bridges follow the written chain, without caps; N, C: chain ends. Non-standard residues stand in square brackets, D forms with d. Residues, ends and D or L forms follow the SMILES beside them. Chains are numbered I, II in the order given. Actinocin(9to1) = Cc1c2oc3c(C)ccc(C(=O)[*:1])c3nc-2c(C(=O)[*:2])c(N)c1=O; NMeV = CN[C@H](C(=O)O)C(C)C; Sar = CNCC(=O)O

In assay [1] the test system is AAAGCACGAAAA (DNA, duplex) AAAGCACGAAAA/TTTTCGTGCTTT
Briefly: CD titration. Particulars: Mg2+ 5 mM, Na+ (50 mM sodium cacodylate); 50 mM sodium cacodylate pH 7.2; 20 μM duplex, drug 1-4 equivalents.

Assay [2] relates to d(AGCCGT)2 (DNA, duplex) AGCCGT/ACGGCT. The assay is described as follows: X-ray crystallography (1.57 Å). The conditions noted are these: Mn2+ 3 mM, Li+ 30 mM, 25 mM MES pH 6.5, 3% PEG400, 20 °C.
The test system of assay [3] is AAAAGCCGAAAA (DNA, duplex) AAAAGCCGAAAA/TTTTCGGCTTTT
The assay is described as follows: fluorescence quenching of Dox, Hill fit. The conditions noted are these: Mg2+ 5 μM (so in the source); 50 μM Na cacodylate pH 7.3 (so in the source); 1 μM Dox alone, apparent; Kd decreases when ActD added.

The subject of assay [4] is AAAGCAACGAAA (DNA, duplex) AAAGCAACGAAA/TTTCGTTGCTTT
The assay is described as follows: CD titration. Particulars: Mg2+ 5 mM, Na+ (50 mM sodium cacodylate); 50 mM sodium cacodylate pH 7.2; 20 μM duplex, drug 1-4 equivalents.

For assay [5], the system named is AAAAGCCGAAAA (DNA, duplex) AAAAGCCGAAAA/TTTTCGGCTTTT
The assay is described as follows: CD titration. Particulars: Mg2+ 5 mM, Na+ (50 mM sodium cacodylate); 50 mM sodium cacodylate pH 7.2; 20 μM duplex, drug 1-4 equivalents.

The test system of assay [6] is AAGCAAACGAAA (DNA, duplex) AAGCAAACGAAA/TTTCGTTTGCTT
The assay is described as follows: CD titration. Particulars: Mg2+ 5 mM, Na+ (50 mM sodium cacodylate); 50 mM sodium cacodylate pH 7.2; 20 μM duplex, drug 1-4 equivalents.

As for `COc1cccc2c1C(=O)c1c(O)c3c(c(O)c1C2=O)C[C@@](O)(C(=O)CO)C[C@@H]3O[C@H]1C[C@H](N)[C@H](O)[C@H](C)O1`, the binding entry in assay [1] is recorded as “yes”; in assay [2] (ternary complex with actinomycin D, intercalated at C4pG5), “yes”; in assay [4], “yes”; in assay [5] it was “yes”; in assay [6], “yes”. Also, the Kd in assay [3] turned out to be 2130 nM.

On to `Cc1c2oc3c(C)ccc(C(=O)N[C@@H]4C(=O)N[C@H](C(C)C)C(=O)N5CCC[C@H]5C(=O)N(C)CC(=O)N(C)[C@@H](C(C)C)C(=O)O[C@@H]4C)c3nc-2c(C(=O)N[C@@H]2C(=O)N[C@H](C(C)C)C(=O)N3CCC[C@H]3C(=O)N(C)CC(=O)N(C)[C@@H](C(C)C)C(=O)O[C@@H]2C)c(N)c1=O` (I: T[dV]P[Sar][NMeV] / II: T[dV]P[Sar][NMeV]; ester I:1-I:C, II:1-II:C; linker I:N-II:N via Actinocin(9to1)), for which the binding result was “yes” in assay [1]; “yes” in assay [2] (ternary complex with doxorubicin, intercalated at G2pC3); “yes” in assay [4]; “yes” in assay [5]; “yes” in assay [6].
